“Also recorded” adds a separate entry of the source.
How the values were obtained:
[1] = system: ddC induced mechanical allodynia in rats; test: ddC induced mechanical allodynia in rats, von Frey test; assay type: in vivo, rat; conditions: for Reversal of ddC-induced neuropathy (mechanical threshold, von Frey): FIG. 4, 15 min after drug administration
Method: Painful peripheral NP may be induced in rats by i.v. administration of 2′,3′-dideoxycytidine (ddC) mimicking what is seen in AIDS patients undergoing antiviral therapy. The ddC test represents a useful and predictive model to study molecules with analgesic potential in human neuropathic states.
Adult male SD rats (Harlan, Italy, 150-200 g weight) were used. Animals were treated with 25 mg/kg i.v. bolus of 2′,3′-dideoxycytidine, an inhibitor of nucleoside reverse transcriptase used for AIDS therapy that in rodents induces a peripheral neuropathy resulting in allodynic responses to mechanical stimuli. Symptoms severity peaks between 5 to 10 days after administration (Joseph, E. K. et al. —Pain 107 (2004) 147-158). Ten days after administration of ddC, as an intravenous (i.v.) bolus, test substances were administered every day, once a day or b.i.d for 4 weeks. Dosing was withheld in those days in which allodynic tests were performed, and lasted for 24 h and 48 h.
NT-11624 was dissolved in distilled water and was orally by gavage administered as follows • Group 1: 100 mg/kg b.i.d. for 14 days, followed by 50 mg/kg b.i.d. for 7 days, then 50 mg/kg u.i.d. for 7 days. • Group 2: 50 mg/kg b.i.d. for 28 days.
Pregabalin (3B Pharmachem (Wuhan) International Co.) was dissolved in 1% CMC (carboxymethylcellulose) and orally administered at the dose of 15 mg/kg b.i.d. for 28 days.
Thresholds for mechanical allodynia were measured using an electronic Von Frey apparatus. […] After 4 week drug administration, additional tests were performed beyond the 60 min point, at 4, 8, 24, 48 and 56 h. Results represent the mean (±S.E.M.) of mechanical thresholds expressed in grams.
Drugs: The following substance was used: NT-11624 (batch No. 0000104580 supplied by Brane Discovery Srl, Gerenzano Italy). NT-11624 was dissolved in distilled water and given p.o. every day, except in those days in which allodynic tests were performed and lasted for 24 h, 48 h and 56 h (i.e. days 1, 3, 7, 10, 14, 21, 28).
The following groups of treatment were utilized: • NT-11624 (Group 1): rats received 100 mg/kg b.i.d. of NT-11624 for 14 days, then 50 mg/kg b.i.d. for 7 days, then 50 mg/kg u.i.d. for 7 days. • NT-11624 (Group 2): rats received 50 mg/kg b.i.d. for 28 days • Pregabalin: rats received 15 mg/kg b.i.d. for 28 days
Administration volume was 10 ml/kg body weight. Pregabalin [3B Pharmachem (Wuhan), International Co] was dissolved in CMC 1% (carboxymethylcellulose, Sigma-Aldrich, Italy), and orally given as described before. Control rats received vehicle only.
ddC intravenous injection: ddC was dissolved in saline to a concentration of 25 mg/kg (1 ml) and was administered i.v. into the rat tail vein. Control rats were treated with an equal volume of saline i.v.
The administration of ddC produces dose-dependent mechanical hypersensitivity and allodynia peaking in severity between 5-10 days after the administration. The test is usually performed at day 10.
Von Frey test: Each animal was placed in a chamber with a mesh metal floor covered by a plastic dome that enabled the animal to walk freely, but not to jump. The mechanical stimulus was then delivered in the mid-plantar skin of left hind paw using an electronic Von Frey apparatus (37400 Dynamic Plantar Aesthesiometer; Ugo Basile, Comerio, Varese, Italy). The cut-off was fixed at 50 g, while the increasing force rate (ramp duration) was settled at 20 sec. […] At day 28, additional tests were performed at 4, 8, 24, 48 and 56 h after drug administration. Results represent the mean (±S.E.M.) of mechanical thresholds expressed as grams.

[2] = system: MIA induced hyperalgesia in the rat; test: MIA induced hyperalgesia in the rat (paw-pressure test); assay type: in vivo; conditions: for Mechanical threshold, before treatment, first day basal: baseline
From the text: Peripheral neuropathic induced in rats by administration into the left knee joint of MIA mimics chronic pain condition of osteoarthritis found in a large part of population over 60 years. The MIA test represents an useful and predictive model to study the anti-hyperalgesic potential of a drug in human osteoarthritic condition.
Drugs: The following substances were used: NT-11624 (batch n 66-MM3/16 supplied by Brane Discovery Sri, Gerenzano Italy) and tramadol (Tocris, UK). […] Control rats received saline only.
Sodium monoiodoacetate injection: A single intra-articular injection of sodium iodoacetate (MIA) was introduced into the right knee joint. […] Briefly, rats were deeply anaesthetized by ethylic ether. Following abolition of the hindpaw pinch withdrawal reflex, a 27-gauge needle was introduced into the joint cavity between the tibial plateau and femoral condyles. Once in place, 2 mg of MIA were solubilized in a volume of 25 ul and injected into the joint and the animal was allowed to recover for 14 days prior to pain assessment. It has consistently been shown that this dose of MIA causes osteoarthritic-like focal lesions in articular cartilage and subchondral bone thickening 14 days after administration Guingamp C. et al. Arthritis Rheum 40, 1670-9 (1997). Therefore this model can easily and quickly reproduce osteoarthritic-like lesions and functional impairment in rats, similar to that observed in human disease.
The administration of MIA induces in rats a hyperalgesic response to mechanical stimuli that reaches its statistical significance 5 days after administration and persists for 4 weeks (Fernihough et al. Pain 112:83-93 (2004)).
Control rats were treated with an equal volume of saline. […]
Starting from day 17 after MIA injection, paw pressure tests were performed.
Mechanical hyperalgesia: Paw mechanical sensitivity was determined using a Randall & Selitto apparatus exerting a force that increases at constant rate (32 g/s). The stimulus at which rats withdrawn the paw was evaluated before treatment (First day basal) and at the end of the treatment as following: before last treatment (pre-dose), and after last treatment (15, 30, 45, 60 min, 24, 48 and 72 h).
Results represent the mean of mechanical thresholds expressed as grams. To avoid any possible damage to the animal paw the maximum applied force was fixed at 240 g.

[3] = Group 1 down-titration schedule, p.o.
[4] = Group 2: 50 mg/kg b.i.d. p.o. for 28 days, 50 mg/kg
[5] = MIA rats, 14 days b.i.d. p.o. (NT-11624 150 mg/kg, tramadol 40 mg/kg)
[6] = MIA rats, 14 days b.i.d. p.o., NT-11624 150 mg/kg
[7] = MIA rats, single p.o. administration on saline b.i.d. (NT-11624 150 mg/kg, tramadol 40 mg/kg)
[8] = 15 mg/kg b.i.d. p.o. for 28 days

## O=C1CN2C(=O)CCC2N1 (centres unmarked) [NT-11624, 2,5-dioxohexahydro-1H-pyrrolo[1,2-a]imidazole]
[1]
  Reversal of ddC-induced neuropathy (mechanical threshold, von Frey): fully reverts
[1]; Group 1: 100 mg/kg b.i.d. 14 days, then 50 mg/kg b.i.d. 7 days, then 50 mg/kg u.i.d. 7 days, p.o.
  Onset of anti-allodynic effect: starting from the third day; also recorded: as of day 3
[1]; [3]
  Anti-allodynic effect 56 h from the last administration: still significant protection; also recorded: robust effect
  Anti-allodynic effect at day 14: complete protection
  Anti-allodynic effect up to 48 h from the last administration (day 28): full reversal of allodynia
[1]; Group 2: 50 mg/kg b.i.d. p.o. for 28 days
  Effect up to 24 h after the last administration: clearly evident
[1]; [4]
  Effect 48 h after the last administration: still significant; also recorded: still evident
  Onset of anti-pain response: starting from day 10; also recorded: as of day 10
[2]; 150 mg/kg b.i.d. oral, 2 weeks
  Anti-hyperalgesic effect 15 min until 48 h after last dosing: lasted throughout the experiment
[2]; 75 and 150 mg/kg b.i.d. oral, 2 weeks, 13 h after the evening administration of the previous day
  Paw pressure hyperalgesic response at the pre last administration test: significant reduction of the hyperalgesia
[2]; [5]
  Mechanical threshold, after last treatment 15 min: 72.6 ± 4.1 g
  Mechanical threshold, after last treatment 30 min: 75.0 ± 2.2 g
  Mechanical threshold, after last treatment 45 min: 70.5 ± 2.7 g
  Mechanical threshold, before last treatment, pre-dose: 65.1 ± 2.5 g
[2]; [6]
  Mechanical threshold, after last treatment 60 min: 60.6 ± 4.2 g
  Mechanical threshold, after last treatment 24 h: 55.3 ± 4.8 g
  Mechanical threshold, after last treatment 48 h: 43.9 ± 4.0 g
[2]; MIA rats, 14 days b.i.d. p.o., NT-11624 150 mg/kg, mean of 4 rats
  Mechanical threshold, after last treatment 72 h: 34.8 ± 3.7 g
[2]; MIA rats, groups later treated 14 days b.i.d. p.o. (NT-11624 150 mg/kg, tramadol 40 mg/kg)
  Mechanical threshold, before treatment, first day basal: 63.5 ± 3.2 g
[2]; MIA rats, single administration groups (saline 14 days b.i.d. first)
  Mechanical threshold, before treatment, first day basal: 60.4 ± 2.7 g
[2]; MIA rats, single administration on saline b.i.d., before the single p.o. dose (NT-11624 150 mg/kg, tramadol 40 mg/kg)
  Mechanical threshold, before last treatment, pre-dose: 23.9 ± 3.5 g
[2]; [7]
  Mechanical threshold, after last treatment 15 min: 33.8 ± 3.1 g
  Mechanical threshold, after last treatment 30 min: 39.3 ± 2.8 g
  Mechanical threshold, after last treatment 45 min: 26.2 ± 3.1 g
[2]; NT-11624 150 mg/kg p.o., 14 days b.i.d.
  Antihyperalgesic activity at 48 h after the last treatment: statistically significant activity
[2]; after a 2 week oral b.i.d. treatment
  Duration of beneficial effect after last dosing: at least 48 h
[2]; single oral dose after saline b.i.d. for 14 days (NT-11624 150 mg/kg, tramadol 40 mg/kg)
  Effect of a single oral dose on mechanical threshold (in words): significant increase of mechanical threshold only at 30 min
[2]; treatment for 14 days b.i.d. p.o. (NT-11624 150 mg/kg, tramadol 40 mg/kg)
  Antihyperalgesic activity after the last treatment (in words): completely protects from MIA-induced hyperalgesia up to 24 h

## CC(C)C[C@H](CN)CC(=O)O [Pregabalin, reference compound]
[1]; 15 mg p.o. b.i.d.
  Onset of effect on allodynic threshold: modest but significant effect already from day 1
[1]; [8]
  Day of peak effect: 14 days
  Effect of the last administration on day 28: moderate beneficial effect that disappeared after 8 h

## CC[C@@H](C(N)=O)N1CCCC1=O [levetiracetam, reference compound]
[1]
  Reversal of ddC-induced neuropathy (mechanical threshold, von Frey): not
